The values below are quoted from earlier work in EP1096056A1, “Wrinkle resistant composition” (THE PROCTER & GAMBLE COMPANY, priority 1999, dated 2001).

Structures can show the parent of a compound that is named as a salt.

For data set [1] the following is noted: in water.

On to `Cn1sc2c(c1=O)CCC2` [Promexal, 2-methyl-4,5-trimethylene-4-isothiazolin-3-one], for which the “stability over a wide pH range” value is recorded as 4-12.
Take `[Na+].[O-][n+]1ccccc1[S-]` [sodium pyrithione]: the water solubility result in data set [1] was “about 50%”.
In the case of `O=c1[nH]sc2ccccc12` [Proxel, 1,2-benzisothiazolin-3-one], the “stability over a wide pH range” value was 4-12.
On to `[H]/N=C(\N/C(=N/[H])NCCCCCCNC(=N)NC(=N)Nc1ccc(Cl)cc1)Nc1ccc(Cl)cc1` [digluconate salt, 1,1'-hexamethylene bis(5-(p-chlorophenyl)biguanide)], for which the water solubility entry in data set [1] is reported as “about 70%”.
With `[H]/N=C(\N/C(=N/[H])NCCCCCCNC(=N)NC(=N)Nc1ccc(Cl)cc1)Nc1ccc(Cl)cc1` [diacetate salt, 1,1'-hexamethylene bis(5-(p-chlorophenyl)biguanide)], in data set [1], the water solubility entry is listed as “about 1.8%”.
